From paper PMC3185947 (British Journal of Cancer, 2011)
Like-named read-outs stand apart in the source and are kept apart here. Marks after values point to notes of the source that are not given here.

What was measured:
[1] = tested on: patients with previously treated advanced NSCLC; assay: Erlotinib-related toxicities (worst grade per patient), NCI CTC Version 2.0; type: in vivo, human
[2] = tested on: patients with previously treated advanced NSCLC
Experimental: In the initial stage, we assessed the feasibility of intrapatient dose escalation from 150 mg per day to a maximal level of tolerable skin toxicity, which was defined as the TR. This objective was determined to be feasible if patients developed a TR in the absence of non-cutaneous dose-limiting toxicity (DLT). […] Skin toxicity was graded according to the following scale that was based on patient tolerability:
In the absence of both a TR and non-cutaneous DLT, the dose was increased in each patient to 200 mg per day, and then in 25 mg per day increments every 14 days. […] Toxicities were graded according to the National Cancer Institute Common Toxicity Criteria (NCI CTC), Version 2.0, except for skin toxicity.
Doses were reduced in 25 mg per day decrements for toxicity. The initial systemic intervention for symptomatic skin toxicity was minocycline 100–150 mg twice daily for at least 7 days, and the initiation of treatment with minocycline for symptomatic rash was at the discretion of the investigator.

[3] = tested on: previously treated patients with non-small cell lung cancer (NSCLC); conditions: cited from earlier work; for Median survival: ref Wacker et al, 2007
[4] = tested on: patients receiving erlotinib 150 mg per day; design: method as in earlier work; conditions: ref Shepherd et al, 2005, Perez-Soler and Van Cutsem, 2007; cited from earlier work
[5] = erlotinib 225–275 mg (N=18), non-cutaneous dose limiting toxicity reported

## C#Cc1cccc(Nc2ncnc3cc(OCCOC)c(OCCOC)cc23)c1 [erlotinib]
[1]; erlotinib 175–200 mg (N=13), non-cutaneous dose limiting toxicity reported
  Fatigue, grade 3–4: 1 (8) ^a n (%)
[1]; erlotinib 225–275 mg (N=18)
  Alopecia, grade 3–4: 0 (0) n (%)
  Alopecia, grade Any: 4 (22) n (%)
  Anorexia, grade Any: 6 (33) n (%)
  Creatinine, grade 3–4: 0 (0) n (%)
  Creatinine, grade Any: 0 (0) n (%)
  Diarrhea, grade 3–4: 1 (6) n (%)
  Diarrhea, grade Any: 13 (72) n (%)
  Epistaxis, grade 3–4: 0 (0) n (%)
  Epistaxis, grade Any: 3 (17) n (%)
  Fatigue, grade Any: 6 (33) n (%)
  Headache, grade Any: 1 (6) n (%)
  Nausea, grade 3–4: 0 (0) n (%)
  Nausea, grade Any: 9 (50) n (%)
  Paronychia, grade 3–4: 0 (0) n (%)
  Paronychia, grade Any: 3 (17) n (%)
  Skin fissures, grade 3–4: 1 (6) n (%)
  Skin fissures, grade Any: 2 (11) n (%)
  Stomatitis, grade 3–4: 0 (0) n (%)
  Stomatitis, grade Any: 6 (33) n (%)
  Vomiting, grade 3–4: 0 (0) n (%)
  Vomiting, grade Any: 5 (28) n (%)
[1]; [5]
  Anorexia, grade 3–4: 1 (6) ^a n (%)
  Fatigue, grade 3–4: 2 (11) ^a n (%)
  Headache, grade 3–4: 1 (6) ^a n (%)
[1]; erlotinib ⩾300 mg (N=7)
  Alopecia, grade 3–4: 0 (0) n (%)
  Alopecia, grade Any: 2 (29) n (%)
  Anorexia, grade 3–4: 0 (0) n (%)
  Anorexia, grade Any: 3 (43) n (%)
  Creatinine, grade 3–4: 0 (0) n (%)
  Creatinine, grade Any: 0 (0) n (%)
  Diarrhea, grade 3–4: 0 (0) n (%)
  Diarrhea, grade Any: 7 (100) n (%)
  Epistaxis, grade 3–4: 0 (0) n (%)
  Epistaxis, grade Any: 2 (29) n (%)
  Fatigue, grade 3–4: 0 (0) n (%)
  Fatigue, grade Any: 4 (57) n (%)
  Headache, grade 3–4: 0 (0) n (%)
  Headache, grade Any: 0 (0) n (%)
  Nausea, grade 3–4: 0 (0) n (%)
  Nausea, grade Any: 5 (71) n (%)
  Paronychia, grade Any: 2 (29) n (%)
  Skin fissures, grade 3–4: 0 (0) n (%)
  Skin fissures, grade Any: 2 (29) n (%)
  Stomatitis, grade 3–4: 0 (0) n (%)
  Stomatitis, grade Any: 1 (14) n (%)
  Vomiting, grade 3–4: 0 (0) n (%)
  Vomiting, grade Any: 3 (43) n (%)
[1]; erlotinib ⩾300 mg (N=7), non-cutaneous dose limiting toxicity reported
  Paronychia, grade 3–4: 1 (14) ^a n (%)
[1]; human, in vivo
  Non-cutaneous DLT: grade 3 anorexia: one
  Non-cutaneous DLT: grade 3 creatinine elevation: one
  Non-cutaneous DLT: grade 3 fatigue: three
  Non-cutaneous DLT: grade 3 headache: one
  Non-cutaneous DLT: grade 3 paronychia: one
  Patients who discontinued treatment due to protracted grade 3 anorexia and grade 2 nausea: One
[1]; of 42 patients
  Patients who experienced non-cutaneous DLT: Seven
[2]; 10 of 42 patients
  Patients with pain associated with skin toxicity: 24%
[2]; 11 of 42 patients
  Patients with urticaria as dominant feature of rash: 26%
[2]; 12 of 42 patients
  Patients in whom the rash resembled rosacea: 29%
[2]; 16 of 42 patients
  Patients with desquamation as dominant feature of rash: 38%
[2]; 19 of 24 patients with TR
  Patients with a TR who developed it at the initial 150 mg per day dose level: 79%
[2]; 24 of 42 patients, TR = grade 2 tolerable rash requiring minocycline
  Patients who developed a target rash (TR): 57%
[2]; 28 of 42 patients
  Patients with pruritus associated with skin toxicity: 67%
[2]; 41 of 42 patients
  Patients who developed skin toxicity: 98%
[2]; 42 patients
  Patients discontinued from the study due to skin toxicity: No patient
[2]; first stage of the study
  Initial patients (first stage) who developed a TR: 10 of the 11 initial patients
[2]; five of 24 patients with TR
  Patients with a TR who experienced it only after dose escalation: 21%
[2]; of 42 patients
  Patients who experienced a grade 3 rash: Six
[2]; principally due to intolerable skin toxicity despite supportive measures
  Dosing range above which erlotinib doses could not be increased in most patients: 250–300 mg per day
[2]; three of 24 patients with TR
  Patients with a TR who developed it following escalation to 200 mg per day: 13%
[2]; two of 24 patients with TR
  Patients with a TR who developed it following escalation to 225 mg per day: 8%
[3]; BR.21 study, 95% CI: 1.9–2.9 months, ref Shepherd et al, 2005
  Median PFS: 2.2 months
[3]; BR.21 study, 95% CI: 6.4–12%, ref Shepherd et al, 2005
  ORR: 8.9%
[3]; erlotinib-treated patients who did not experience skin toxicity
  Median survival: 3 months
[3]; erlotinib-treated patients with grade 1 skin toxicity
  Median survival: 7 months
[3]; erlotinib-treated patients with grade 2/3 skin toxicity
  Median survival: 11 months
[4]
  Patients who developed NCI CTC grade 2 or 3 rash: ~30%
